Results on four compounds are retold here after patent publication US20160374967A1, “ORGANIC THIOPHOSPHATE ANTIRETROVIRAL AGENTS” (The Government of the U.S.A., as Represented by the …, priority 2006, published 2016).

Where two headings read alike, the source gives them in different places.

The test system of one series is HIV-1BZ-167. Kind of series: HIV-1 replication in PHA-blasts by p24 ELISA, dose-response and combinations. The conditions noted are these: for IC50: n=3, read-out: 50% Inhibition of virus replication. The series is classed as cell-based. A general note: ELISA stands for enzyme-linked immunosorbent assay.
In series [1] the test system is HIV. Description: microbe, parasite or virus in culture. The series is classed as cell-based. As to conditions: for duration of action (anti-HIV, cell culture): cysteamine re-added every 12 hours, WR-1065 added once in 72 hour period.
In series [2] the test system is PHA-blasts. The conditions noted are these: human, 72 h.
The conditions of series [3]: cited from earlier work.
For series [4] the following is noted: mouse, in vivo; cited from earlier work.
For series [5] the following is noted: in vivo; cited from earlier work.
The conditions of series [6]: mice, cited from earlier work.
For series [7] the following is noted: rhesus macaques, duodenal 150 mg/kg BW of amifostine or phosphonol, cited from earlier work.
In the next series the test system is adenovirus. Description: Antiviral efficacy against adenovirus. As to conditions: three different species of adenovirus.
The test system of series [8] is PHA-blasts. Description: Cell survival (cytotoxicity) by trypan blue in HIV-1 infected PHA-blasts.
Another series relates to PHA blasts. Kind of series: Viability of PHA blasts exposed to WR-1065 (no HIV), 72 h. The series is classed as cell-based, human.
The test system of a further series is TK6 cells. Description: 14-day survival of TK6 cells in continuous presence of WR-1065. It is filed as cell-based, human.
Series [9] has as its system HIV. The series is classed as cell-based. The conditions noted are these: human T-lymphocytes.
The mark [10] stands for this setting: metabolite after amifostine injection at 500-910 mg/m^2.
Setting [11] is: metabolite after amifostine injection.

As usually defined, the inhibition is the change of the read-out against control, counted positive when it falls. In the case of `Cc1cn([C@H]2C[C@H](N=[N+]=[N-])[C@@H](CO)O2)c(=O)[nH]c1=O` [AZT, Zidovudine, reference compound], in the series on HIV-1BZ-167 (AZT 0.8, 3.0 and 5.0 μM), the “inhibition of virus replication” value is 85-96%. In the series on HIV-1BZ-167 (AZT versus WR-1065), the “dose for 50% reduction in HIV-1 replication, fold lower than that of WR-1065” value is listed as “about 1000 fold”. Further, in the series on HIV-1BZ-167 (Human immunodeficiency virus 1, 7.75 μM, alone, mean±SD, n=4), the inhibition at 7.75 µM is 96.7 ± 5.1%. In the series on HIV-1BZ-167 (Human immunodeficiency virus 1, dose-response 1.9-117.0 nM, mean±SE), the IC50 stood at 0.0035 ± 0.0007 µM. Further, the “HIV Viral P24” value came out at 0.13 pg/mL in the series on HIV [1] (Experiment #1, 10 μM AZT, 72 h); 9.07 pg/mL in the series on HIV [1] (Experiment #2, 10 μM AZT, 72 h); 2.9 pg/mL in the series with HIV [1] (Experiment #3, 10 μM AZT, 72 h). The inhibition at 10 µM in the series on HIV [1] (Human immunodeficiency virus 1, PBMC, 72 h, Experiment #1, 10 μM AZT, 72 h, read-out: Estimated percent inhibition) was about 100%; in the series on HIV [1] (Human immunodeficiency virus 1, PBMC, 72 h, Experiment #2, 10 μM AZT, 72 h, read-out: Estimated percent inhibition), 94.9%; in the series on HIV [1] (Human immunodeficiency virus 1, PBMC, 72 h, Experiment #3, 10 μM AZT, 72 h, read-out: Estimated percent inhibition), about 100%. For the same compound, the target cell survival in the series on PHA-blasts [2] (7.75 μM) is on record as 54±15%.
For `NCCCNCCSP(=O)(O)O` [Amifostine, S-2-(3-aminopropyl)aminoethyl phosphorothioic acid], the inhibition at 50 µM with HIV-1BZ-167 (Human immunodeficiency virus 1, 50 μM amifostine (with alkaline phosphatase), mean±SE, n=4) stood at 75.4 ± 8.3%. For the same compound, the “plasma T1/2” value in [3] (in vivo) is about 0.167 h. Besides, in series [4], the “100% effective radioprotective dose” value is listed as “about one half of the MTD”. Besides, the “effects of single doses of up to 2700 mg/m^2” value in [5] is recorded as “no untoward effects”. The cell survival with PHA-blasts [2] (50 μM) was found to be 53±10%. Besides, the “maximally tolerated dose (MTD)” value in series [6] (i.p.) was 432 mg/kg BW; in [6] (p.o.), 720 mg/kg BW.
On to `NCCS` [Cysteamine, reference compound], for which, in the series on HIV [1] (200 μM), the “suppression of HIV replication” value is about 100%. Besides, the “duration of action (anti-HIV, cell culture)” value in the series on HIV [1] is listed as “very short”.
`NCCCNCCS` [WR-1065, 2-(3-aminopropylamino)ethanethiol]: the antiviral efficacy result with influenza and with adenovirus was “has antiviral efficacy” in each case. In addition, the HIV-1 growth inhibition in the series on HIV-1BZ-167 (103-206 μM WR-1065) was at least 94%. In addition, the inhibition at 26 µM with HIV-1BZ-167 (Human immunodeficiency virus 1, 26 μM WR-1065, mean SE, n=5) was 65 ± 7.5%. In the series on HIV-1BZ-167 (Human immunodeficiency virus 1, 50 μM WR-1065, n=5), the inhibition at 50 µM was 83.2 ± 18.6%. In addition, the inhibition at 52 µM in the series with HIV-1BZ-167 (Human immunodeficiency virus 1, 52 μM WR-1065, n=7) was 88.7 ± 5.5%. In addition, the inhibition at 100 µM was 92 ± 11% in the series on HIV-1BZ-167 (Human immunodeficiency virus 1, 100 μM WR-1065, n=5) and 94.9% with HIV [1] (Human immunodeficiency virus 1, PBMC, 72 h, Experiment #2, 100 μM WR-1065, 72 h, read-out: Estimated percent inhibition). Further, the inhibition at 103 µM in the series on HIV-1BZ-167 (Human immunodeficiency virus 1, 103 μM WR-1065, n=8) amounted to 93.9 ± 3.1%. The IC50 in the series on HIV-1BZ-167 (Human immunodeficiency virus 1, dose-response 2.5-103.0 μM, mean±SE) turned out to be 3.1 ± 0.6 µM. In addition, the “effect on antiretroviral activity of 0.8-3.0 μM AZT” value with HIV-1BZ-167 (WR-1065 at 26 μM) is “did not inhibit”. In addition, the “Concentration (μg/ml), plasma” value is 6.21 µg/mL in [7] (1 h after administration), 4.14 µg/mL in series [7] (2 h after administration) and 2.07 µg/mL in [7] (6 h after administration). In addition, the cell survival in the series on PHA-blasts [8] (26 μM WR-1065) was 37%; in the series with PHA-blasts [8] (50 μM WR-1065), 55±22%; in the series on PHA-blasts [8] (52 μM WR-1065), 49%; with PHA-blasts [8] (100 μM WR-1065), 42±18%; in the series with PHA-blasts [8] (103 μM WR-1065), 78%. Moreover, the T1/2 in series [3] (setting [10]) is at least 2 h. Besides, in series [3] (setting [10]), the peak plasma level was about 100 µM. For the same compound, the bioavailability entry in series [3] (setting [11]) is “high”. Also, the tissue distribution entry in series [3] (setting [11]) is on record as “widespread”. Further, in the series with HIV [1], the “in vitro anti-HIV potency relative to cysteamine” value is reported as 2 fold. Further, the “HIV inhibition in human PBMCs (in words)” value in the series on HIV [1] (Experiment #1, 1000 μM) is recorded as “inhibits HIV completely”. Moreover, the “HIV Viral P24” value with HIV [1] (Experiment #1, 1000 μM WR-1065, 72 h) was 0.13 pg/mL; in the series on HIV [1] (Experiment #2, 100 μM WR-1065, 72 h) it was 8.92 pg/mL; in the series with HIV [1] (Experiment #2, 330 μM WR-1065, 72 h), 9.31 pg/mL; in the series with HIV [1] (Experiment #2, 1000 μM WR-1065, 72 h), 8.92 pg/mL; in the series with HIV [1] (Experiment #3, 10 μM WR-1065, 72 h), 911.2 pg/mL; in the series with HIV [1] (Experiment #3, 33 μM WR-1065, 72 h) it was 503.2 pg/mL. In addition, the “HIV Viral P24” value in the series on HIV [1] (Experiment #3, 66 μM WR-1065, 72 h) came out at 33.2 pg/mL. Further, in the series with HIV [1] (Experiment #1, 1000 μM WR-1065 with 10 μM AZT), the “influence on the effect of 10 μM AZT” value is given as “does not appear to alter”. Besides, the “HIV infection inhibition in human PBMCs (in words)” value in the series with HIV [1] (Experiment #2, concentrations as low as 100 μM) is “inhibit HIV infection completely”. Also, in the series with HIV [1] (Experiment #3, 5 μM WR-1065, 72 h), the “HIV Viral P24 pg/ml” value is 10,293.7 pg/ml. In addition, the inhibition at 1000 µM is about 100% in the series on HIV [1] (Human immunodeficiency virus 1, PBMC, 72 h, Experiment #1, 1000 μM WR-1065, 72 h, read-out: Estimated percent inhibition) and 94.9% in the series with HIV [1] (Human immunodeficiency virus 1, PBMC, 72 h, Experiment #2, 1000 μM WR-1065, 72 h, read-out: Estimated percent inhibition). The inhibition at 330 µM with HIV [1] (Human immunodeficiency virus 1, PBMC, 72 h, Experiment #2, 330 μM WR-1065, 72 h, read-out: Estimated percent inhibition) was 94.7%. Further, in the series on HIV [1] (Human immunodeficiency virus 1, PBMC, 72 h, Experiment #3, 5 μM WR-1065, 72 h, read-out: Estimated percent inhibition), the inhibition at 5 µM is 76.8%. Besides, in the series with HIV [1] (Human immunodeficiency virus 1, PBMC, 72 h, Experiment #3, 10 μM WR-1065, 72 h, read-out: Estimated percent inhibition), the inhibition at 10 µM is 98%. Moreover, in the series on HIV [1] (Human immunodeficiency virus 1, PBMC, 72 h, Experiment #3, 33 μM WR-1065, 72 h, read-out: Estimated percent inhibition), the inhibition at 33 µM is 98.9%. Further, the inhibition at 66 µM in the series on HIV [1] (Human immunodeficiency virus 1, PBMC, 72 h, Experiment #3, 66 μM WR-1065, 72 h, read-out: Estimated percent inhibition) is 99.9%. In addition, in the series on HIV [1] (concentration of less than 100 μM), the “suppression of HIV replication” value was over 99.9%. In the series with HIV [1], the “duration of action (anti-HIV, cell culture)” value is “long duration of action”. The “% Viable Cells (compared to control)” value in the series with PHA blasts (1 μM) is given as 83%; in the series on PHA blasts (5 μM) it was 82%; in the series with PHA blasts (10 μM), 90%; in the series on PHA blasts (50 μM) it was 89%; with PHA blasts (100 μM) it was 63%; in the series on PHA blasts (500 μM), 73%. For the same compound, the “% Viable Cells (compared to control)” value in the series with PHA blasts (1000 μM) was found to be 30%. Also, the 14-day survival with TK6 cells (continuous 50-100 μM WR-1065) was under 20%; with TK6 cells (continuous 50-100 μM WR-1065, 10 mg/ml aminoguanidine added from day 4), 70-80%. Moreover, the “intra-cellular concentration necessary to reduce HIV replication by ~100%” value in the series on HIV [9] is about 50 picomoles/10^6 cells.
